Common to all, as to assay type: cell-based
One assay has as its system Chlorella vulgaris. In words: Algistatic concentration against algae.
In the next assay the test system is Myrothecium verrucaria. In words: Fungicidal activity, minimum inhibitory concentration against fungi.
The subject of a further assay is Aspergillus niger. Described as above.
The test system of another assay is Anabaena cylindrica. In words: Algistatic concentration against algae.
A further assay concerns Oscillatoria tenius. In words: Algistatic concentration against algae.
A further assay relates to Stiegeocionim sp. In words: Algistatic concentration against algae.
The next assay concerns Trichoderma viridae. As to the kind of experiment: Fungicidal activity, minimum inhibitory concentration against fungi.
A further assay relates to Chaetomium globosum. The assay is described as above.

From patent US20110002820A1, “EXTERIOR SURFACE TREATMENT SYSTEM” (priority 2008, published 2011) come the findings set out here.

The term MIC denotes the smallest concentration in the dilution series that meets the test's criterion for growth inhibition. Low readings indicate greater potency, high ones weaker potency.

Turning to `CCCCCCCCCC[N+](C)(C)CCCCCCCCCC.[Cl-]` [DDAC, didecyl dimethyl ammonium chloride], the Algistatic concentration in the assay with Chlorella vulgaris is 2.0 ppm; with Anabaena cylindrica it was 0.2 ppm; with Oscillatoria tenius, 0.7 ppm; in the assay with Stiegeocionim sp., 0.7 ppm. The MIC came out at 20 µg/mL with Myrothecium verrucaria (Albifimbria verrucaria), 75 µg/mL with Aspergillus niger, 20 µg/mL in the assay with Trichoderma viridae and 7 µg/mL against Chaetomium globosum.

benzalkonium chloride [BAC]: the Algistatic concentration in the assay with Chlorella vulgaris turned out to be 1.0 ppm; in the assay with Anabaena cylindrica, 1.0 ppm; with Oscillatoria tenius it was 0.6 ppm; in the assay on Stiegeocionim sp., 0.7 ppm. Besides, the Minimum inhibitory concentration amounted to 150 ppm in the assay with Myrothecium verrucaria, 75 ppm with Aspergillus niger, 75 ppm in the assay with Trichoderma viridae and 7 ppm with Chaetomium globosum.
